{
  "source": "patent US20070167438A1",
  "about": "“Treatment of substance abuse” (Wyeth, priority 2006, published 2007)",
  "system": "Rats",
  "assay": "Open field locomotor activity (distance moved, zones crossed) with or without cocaine",
  "format": "in vivo",
  "settings": "open field 1 hour after dosing, five minute test",
  "procedure": "Using (9aR,12aS)-4,5,6,7,9,9a,10,11,12,12a-decahydrocyclopenta[c][1,4]diazepino[6,7,1-ij]quinoline hydrochloride (Compound 1) as an example, the Rats were dosed either with vehicle or with cocaine in the presence or absence of Compound 1 (1.7 mg/kg. sc). One hour after dosing (i.p. & s.c.), rats were put in a open field, where distance moved and zones crossed were recorded by the ethovision program.\nAnimals were brought to the lab room 1 hour before the start of the experiment. Rats were injected with compound(s) 1 hour before being placed in the open field. Rats were then placed in open field, and the test lasted for five minutes.",
  "data": [
    {"compound": "Cl.c1cc2c3c(c1)[C@H]1CCC[C@H]1CN3CCNC2", "note": "[Compound 1, (9aR,12aS)-4,5,6,7,9,9a,10,11,12,12a-decahydrocyclopenta[c][1,4]diazepino[6,7,1-ij]quinoline hydrochloride]", "values": [
      {"measurement": "reversal of the hyperactivity produced by cocaine", "setting": "Compound 1 1.7 mg/kg sc + cocaine 3 mg/kg ip", "value": "completely reversed"},
      {"measurement": "effect on locomotor activity alone", "setting": "Compound 1 1.7 mg/kg sc + vehicle", "value": "no effect"}
    ]}
  ]
}
